This is an account of results in US20240336643A1, “BIFUNCTIONAL COMPOUNDS THAT DEGRADE ALK AND USES THEREOF” (DANA-FARBER CANCER INSTITUTE, INC., priority 2021, published 2024).

Where two headings read alike, the source gives them in different places.

Data set [1] concerns the target BAF3 Cells with Variant 3 EML4-ALK^G1202R (Homo sapiens, UniProt Q9UM73, G1202R, cells depend on it). The conditions noted are these: read-out: BAF3 Cells with Variant 3 EML4-ALK^G1202R (IC50).
Experimental: (§1) The 3-day viability assay was performed by seeding the cells at 750 cells per 50 μL volume of complete medium per well. Following the seeding of the cells, the plate was briefly spun down to let the cells settle at the bottom of the plate before treating with compounds at a dose range using d300e. Once the cells were treated, the cells were incubated at 37° C. with 5% CO2 for 72 hours. At the end of the treatment duration, the plate was brought to root temperature to equilibrate before adding 12.5 μL of the CellTiter-Glo® reagent per well. The plate was shaken using a plate shaken at 50 rpm for 5 minutes at room temperature and then incubated for 5 minutes in the dark before the plates were read using a luminescence based plate reader.
(§2) IC50 values were determined using a non-linear regression curve fit in GraphPad Prism (Version 9.1.0).
In data set [2] the target is BAF3 Cells with Variant 3 EML4-ALK^WT (Homo sapiens, UniProt Q9UM73). The conditions noted are these: read-out: BAF3 Cells with Variant 3 EML4-ALK^WT (IC50); 72 hours, CellTiter-Glo. On the technique in general: ATP-based viability assays read luminescence as a measure of living cells.
Experimental: as §1, §2
Data set [3] is described as follows: Mouse oral PK study. In kind it is in vivo, male C57BI/6 mice. As to conditions: for Vd: C57BI/6, mouse, iv, 2 mg/kg. The procedure: Standard oral PK studies were conducted using male C57BI/6 mice obtained from BioDuro Shanghai. […] Plasma concentrations of compound 1 reported at each of the 9 time points (5 min, 15 min, 30 min, 1 h, 2 h, 4 h, 6 h, 8 h and 24 h post dosing) are the average values from 3 test animals.

In data set [4] the target is T1, FER in HCT116 cells (Homo sapiens, UniProt P16591).
T1 construct: endogenous in cells; host or cells: HCT116
Kind of data set: Western blotting for FER degradation. In kind it is cell-based. As to conditions: various concentrations, 24 hours. The procedure:
HCT116 cells were treated with compound 1 or a FER kinase inhibitor E260 (Elkis et al., Nat. Commun. 8:940 (2017)) at various concentrations for 24 hours, along with DMSO (not shown) and ethanol as controls (FIG. 2). 18 μg of protein was loaded in each lane and Western blotting was performed for FER, CRBN, and loading control ACTIN.
Background: In western blotting, separated proteins are transferred to a membrane and probed.

Data set [5] relates to proteins in MOLT4 cells. Kind of data set: Quantitative mass spectrometry proteomics, relative protein abundance. In kind it is cell-based. The conditions noted are these: 1 μM, 5 hours, cut-offs 2-fold change, p value 0.001. The procedure:
Relative fold-change (FC) abundance of proteins in MOLT4 cells treated with compound 1 (1 μM) for 5 hours was determined using quantitative mass spectrometry proteomics (protocol was published previously: Donovan et al., Cell 183:1714-1731 (2020)). Dotted lines signify a 2-fold change in protein levels and a p value of 0.001. […] FER is a cytoplasmic tyrosine kinase and its kinase function […] for STAT3 phosphorylation in tumor cell transformation and growth, but siRNA knock down of FER leads to decreased phospho-STAT3 and reduced STAT3 activation and inhibition of tumor growth in vivo (Lennartsson et al., J. Biol. Chem. 288:15736-15744 (2013)). STAT3 activation plays a key role in several cancers, including colon cancer (Gargalionis et al., Biomedicines 9:1016 (2021)). Therefore, inhibition of STAT3 signaling through depletion of FER using a targeted protein degrader is useful in the treatment of such cancers.

Data set [6] deals with HiBiT G1202R Variant 1 EML4-ALK (Homo sapiens, UniProt Q9UM73, G1202R). In kind it is cell-based. As to conditions: Ba/F3 cells, 0.0003-2 μM, 4 hours; for DC50: read-out: BAF3 Cellular Degradation - HiBiT G1202R Variant 1 EML4-ALK: DC50; for Dmax: BaF3, maximal level of degradation, read-out: BAF3 Cellular Degradation - HiBiT G1202R Variant 1 EML4-ALK: Dmax. On the technique in general: With HiBiT, luminescence reflects the tagged protein that the partner subunit can reach.

Where [7] appears, read: male, C57BI/6, 10 mg/kg, PO, single dose, plasma.
The mark [8] stands for this setting: male, C57BI/6, IV, single 2 mg/kg, plasma.

HiBiT G1202R Variant 1 EML4-ALK, sequence (Q9UM73 with tags, fused parts or gaps G1202R): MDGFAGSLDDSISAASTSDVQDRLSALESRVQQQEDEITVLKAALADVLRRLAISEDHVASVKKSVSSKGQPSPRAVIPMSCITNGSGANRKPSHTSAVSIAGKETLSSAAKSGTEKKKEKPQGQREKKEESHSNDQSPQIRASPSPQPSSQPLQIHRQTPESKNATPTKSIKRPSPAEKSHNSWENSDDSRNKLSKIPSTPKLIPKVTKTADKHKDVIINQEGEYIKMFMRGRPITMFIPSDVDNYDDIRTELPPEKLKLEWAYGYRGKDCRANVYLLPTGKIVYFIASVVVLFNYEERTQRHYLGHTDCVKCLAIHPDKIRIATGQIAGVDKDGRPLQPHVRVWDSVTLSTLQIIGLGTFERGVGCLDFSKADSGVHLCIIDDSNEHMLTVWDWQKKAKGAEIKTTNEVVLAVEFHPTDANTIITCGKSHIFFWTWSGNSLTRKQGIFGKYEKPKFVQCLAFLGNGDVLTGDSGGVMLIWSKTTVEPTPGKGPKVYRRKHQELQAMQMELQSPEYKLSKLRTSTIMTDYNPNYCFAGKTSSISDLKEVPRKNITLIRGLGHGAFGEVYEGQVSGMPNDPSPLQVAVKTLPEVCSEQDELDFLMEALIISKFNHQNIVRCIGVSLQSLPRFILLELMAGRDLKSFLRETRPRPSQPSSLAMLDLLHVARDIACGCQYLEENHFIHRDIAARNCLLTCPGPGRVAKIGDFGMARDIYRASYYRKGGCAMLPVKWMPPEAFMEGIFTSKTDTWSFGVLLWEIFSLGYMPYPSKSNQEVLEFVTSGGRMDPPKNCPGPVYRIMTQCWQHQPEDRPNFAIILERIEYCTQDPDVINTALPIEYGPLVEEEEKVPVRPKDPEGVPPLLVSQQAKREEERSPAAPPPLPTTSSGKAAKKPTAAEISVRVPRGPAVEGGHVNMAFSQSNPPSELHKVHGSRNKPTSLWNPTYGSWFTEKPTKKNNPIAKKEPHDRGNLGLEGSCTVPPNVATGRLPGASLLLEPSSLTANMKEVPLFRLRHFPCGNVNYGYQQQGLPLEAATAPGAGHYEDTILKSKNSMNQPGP
HiBiT G1202R Variant 1 EML4-ALK, sequence (Q96SW2 whole entry partner): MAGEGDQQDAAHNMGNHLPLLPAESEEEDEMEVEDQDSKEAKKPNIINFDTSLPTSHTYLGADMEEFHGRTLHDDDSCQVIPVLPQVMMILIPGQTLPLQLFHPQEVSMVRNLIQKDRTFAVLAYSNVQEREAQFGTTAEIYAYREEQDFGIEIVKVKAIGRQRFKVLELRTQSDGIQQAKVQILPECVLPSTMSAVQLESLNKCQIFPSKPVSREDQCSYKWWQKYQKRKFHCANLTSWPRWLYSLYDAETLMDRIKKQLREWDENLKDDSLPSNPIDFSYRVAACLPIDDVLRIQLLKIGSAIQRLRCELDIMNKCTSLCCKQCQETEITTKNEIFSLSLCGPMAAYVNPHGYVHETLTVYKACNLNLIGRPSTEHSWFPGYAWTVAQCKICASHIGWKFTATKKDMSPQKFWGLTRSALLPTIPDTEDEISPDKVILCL
HiBiT G1202R Variant 1 EML4-ALK, sequence (Q3U1J4 whole entry partner): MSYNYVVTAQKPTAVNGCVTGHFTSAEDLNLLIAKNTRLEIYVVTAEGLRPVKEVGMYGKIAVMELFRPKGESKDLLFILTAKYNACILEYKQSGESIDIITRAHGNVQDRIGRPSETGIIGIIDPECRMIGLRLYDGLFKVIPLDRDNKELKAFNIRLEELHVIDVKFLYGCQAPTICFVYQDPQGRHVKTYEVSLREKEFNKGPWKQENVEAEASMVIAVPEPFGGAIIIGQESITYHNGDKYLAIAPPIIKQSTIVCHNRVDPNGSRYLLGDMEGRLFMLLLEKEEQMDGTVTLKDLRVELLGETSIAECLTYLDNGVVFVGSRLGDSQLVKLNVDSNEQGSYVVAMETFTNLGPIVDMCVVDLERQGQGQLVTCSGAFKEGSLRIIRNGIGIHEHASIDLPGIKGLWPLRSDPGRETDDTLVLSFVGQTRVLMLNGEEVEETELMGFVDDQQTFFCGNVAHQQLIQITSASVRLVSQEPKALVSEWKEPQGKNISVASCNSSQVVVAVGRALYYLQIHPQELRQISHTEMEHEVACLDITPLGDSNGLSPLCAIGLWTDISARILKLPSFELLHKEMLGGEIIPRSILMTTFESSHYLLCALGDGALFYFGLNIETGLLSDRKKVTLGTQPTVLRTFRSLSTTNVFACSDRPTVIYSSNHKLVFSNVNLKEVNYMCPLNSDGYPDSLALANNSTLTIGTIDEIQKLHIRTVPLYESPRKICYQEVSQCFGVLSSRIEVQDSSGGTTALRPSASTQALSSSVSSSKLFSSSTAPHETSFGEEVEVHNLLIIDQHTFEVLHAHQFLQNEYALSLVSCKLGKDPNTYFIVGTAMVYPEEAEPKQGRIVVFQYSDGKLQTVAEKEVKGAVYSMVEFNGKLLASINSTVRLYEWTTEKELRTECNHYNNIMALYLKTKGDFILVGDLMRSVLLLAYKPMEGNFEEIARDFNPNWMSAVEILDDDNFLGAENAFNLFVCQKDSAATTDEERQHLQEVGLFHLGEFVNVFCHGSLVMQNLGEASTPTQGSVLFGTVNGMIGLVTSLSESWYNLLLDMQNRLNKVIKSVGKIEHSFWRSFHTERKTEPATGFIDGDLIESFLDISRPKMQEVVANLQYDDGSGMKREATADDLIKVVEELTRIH
BAF3 Cells with Variant 3 EML4-ALK^G1202R, sequence (Q9UM73 whole entry G1202R): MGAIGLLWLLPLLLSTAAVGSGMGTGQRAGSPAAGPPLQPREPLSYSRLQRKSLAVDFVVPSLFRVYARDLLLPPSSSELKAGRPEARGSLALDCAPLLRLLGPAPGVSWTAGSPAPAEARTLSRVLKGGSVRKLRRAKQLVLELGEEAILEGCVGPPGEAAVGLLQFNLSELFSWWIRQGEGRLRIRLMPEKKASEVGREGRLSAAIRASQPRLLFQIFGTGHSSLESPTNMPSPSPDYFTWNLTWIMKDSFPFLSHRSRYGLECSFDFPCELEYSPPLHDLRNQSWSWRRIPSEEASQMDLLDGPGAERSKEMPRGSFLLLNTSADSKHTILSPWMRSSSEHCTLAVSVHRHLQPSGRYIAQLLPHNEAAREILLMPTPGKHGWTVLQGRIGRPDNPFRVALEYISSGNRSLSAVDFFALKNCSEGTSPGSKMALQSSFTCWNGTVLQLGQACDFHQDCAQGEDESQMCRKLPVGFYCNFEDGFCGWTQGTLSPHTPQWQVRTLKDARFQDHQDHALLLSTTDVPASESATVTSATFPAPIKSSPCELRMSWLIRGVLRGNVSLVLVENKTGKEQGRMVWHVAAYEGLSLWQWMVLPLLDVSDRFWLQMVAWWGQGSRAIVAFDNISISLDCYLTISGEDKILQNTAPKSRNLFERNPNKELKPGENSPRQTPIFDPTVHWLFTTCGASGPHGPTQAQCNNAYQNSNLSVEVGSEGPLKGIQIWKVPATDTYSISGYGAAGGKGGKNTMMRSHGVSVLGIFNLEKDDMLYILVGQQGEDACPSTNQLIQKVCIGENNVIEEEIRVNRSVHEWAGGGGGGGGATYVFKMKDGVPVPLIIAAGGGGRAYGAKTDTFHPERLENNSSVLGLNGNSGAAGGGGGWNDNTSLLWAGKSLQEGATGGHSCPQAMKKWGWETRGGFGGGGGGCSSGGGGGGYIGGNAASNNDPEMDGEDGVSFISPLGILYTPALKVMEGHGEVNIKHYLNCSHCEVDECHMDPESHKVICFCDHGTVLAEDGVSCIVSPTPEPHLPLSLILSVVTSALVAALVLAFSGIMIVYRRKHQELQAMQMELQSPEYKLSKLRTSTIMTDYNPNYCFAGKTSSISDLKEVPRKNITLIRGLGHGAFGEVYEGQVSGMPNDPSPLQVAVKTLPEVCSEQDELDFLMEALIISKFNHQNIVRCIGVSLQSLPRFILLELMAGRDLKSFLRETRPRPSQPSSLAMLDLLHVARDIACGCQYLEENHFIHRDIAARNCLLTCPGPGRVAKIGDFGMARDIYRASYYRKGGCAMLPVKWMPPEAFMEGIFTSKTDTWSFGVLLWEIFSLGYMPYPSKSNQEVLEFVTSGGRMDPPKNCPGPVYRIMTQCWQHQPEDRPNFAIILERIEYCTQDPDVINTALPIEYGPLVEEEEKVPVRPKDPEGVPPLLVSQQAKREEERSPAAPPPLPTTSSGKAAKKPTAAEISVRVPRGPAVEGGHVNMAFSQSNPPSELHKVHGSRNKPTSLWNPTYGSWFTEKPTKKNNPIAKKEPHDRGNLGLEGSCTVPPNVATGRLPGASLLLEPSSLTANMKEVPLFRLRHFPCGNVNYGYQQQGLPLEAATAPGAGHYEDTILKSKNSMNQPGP
BAF3 Cells with Variant 3 EML4-ALK^WT, sequence (Q9UM73 whole entry, change not shown): as the sequence (Q9UM73 whole entry G1202R) above, with R1202G counted along it
T1 sequence (P16591 whole entry): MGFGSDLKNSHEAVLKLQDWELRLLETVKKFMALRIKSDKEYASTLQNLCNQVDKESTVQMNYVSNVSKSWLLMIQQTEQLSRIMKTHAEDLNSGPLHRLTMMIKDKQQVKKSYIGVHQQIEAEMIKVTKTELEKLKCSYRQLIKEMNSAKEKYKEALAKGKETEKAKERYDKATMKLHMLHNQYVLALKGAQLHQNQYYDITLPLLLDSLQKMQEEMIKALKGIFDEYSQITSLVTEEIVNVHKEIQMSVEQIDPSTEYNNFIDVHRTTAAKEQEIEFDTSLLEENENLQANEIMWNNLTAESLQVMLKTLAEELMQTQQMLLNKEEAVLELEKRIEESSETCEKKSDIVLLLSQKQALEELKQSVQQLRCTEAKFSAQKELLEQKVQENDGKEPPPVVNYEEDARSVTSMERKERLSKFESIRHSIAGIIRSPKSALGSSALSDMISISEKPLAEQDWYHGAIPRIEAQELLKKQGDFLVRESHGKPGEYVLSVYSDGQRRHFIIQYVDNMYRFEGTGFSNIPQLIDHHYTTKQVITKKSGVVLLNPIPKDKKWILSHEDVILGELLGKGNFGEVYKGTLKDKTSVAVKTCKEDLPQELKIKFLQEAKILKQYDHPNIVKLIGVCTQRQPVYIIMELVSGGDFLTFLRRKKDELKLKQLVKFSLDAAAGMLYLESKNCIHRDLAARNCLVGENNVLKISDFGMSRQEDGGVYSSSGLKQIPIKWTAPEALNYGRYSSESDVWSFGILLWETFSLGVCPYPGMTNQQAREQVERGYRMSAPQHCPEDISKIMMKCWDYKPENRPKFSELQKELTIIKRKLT

As for `COc1cc(N2CCC(N3CCN(C)CC3)CC2)ccc1Nc1ncc(Cl)c(Nc2ccccc2P(C)(C)=O)n1` [Brigatinib], in data set [1] (baf3 cells with variant 3 eml4-alk^g1202r), the GI50 was 0.183 µM.
On to `Cc1cc(Nc2ncc(Cl)c(Nc3ccccc3S(=O)(=O)C(C)C)n2)c(OC(C)C)cc1C1CCNCC1` [Ceritinib], for which the GI50 in data set [1] (72 hours, CellTiter-Glo) was found to be 0.357 µM; in data set [2] it was 0.085 µM.
The AUC(0-inf) is the area under the concentration-time curve extrapolated to infinity. Read a low AUC(0-inf) as low exposure. The AUC(0-t) is exposure summed from dosing to a finite time, without extrapolation to infinity. A higher AUC(0-t) goes with high exposure. What is called Cmax is the maximum level reached in the sampled fluid or tissue. Usually MRT inf stands for the average time that molecules of a dose stay in the body. Broadly, the Tmax is the time at which the peak concentration occurs. One may read the half-life as the time needed for the level to fall by half in the phase considered. Low readings indicate fast loss, high ones slow loss. For `COc1cc(C2CCN(CC3CN(c4ccc5c(c4)C(=O)N(C4CCC(=O)NC4=O)C5=O)C3)CC2)c(C)cc1Nc1ncc(Cl)c(Nc2ccccc2S(=O)(=O)C(C)C)n1` (stereo not drawn) [Compound 1, 5-{3-[(4-{4-[(5-chloro-4-{[2-(propane-2-sulfonyl)phenyl]amino}pyrimidin-2-yl)amino]-5-methoxy-2-methylphenyl}piperidin-1-yl)methyl]azetidin-1-yl}-2-(2,6-dioxopiperidin-3-yl)-2,3-dihydro-1H-isoindole-1,3-dione], in data set [3] (IV, single 2 mg/kg, plasma), the AUCExtr is reported as 1.65%. For the same compound, in data set [3] (PO versus IV), the F was determined as 28.0%. Besides, in data set [3] (PO, single dose, plasma), the AUCExtr came to 5.08% and the AUCInf/D stood at 0.605 hr*kg*nM/nmol. In data set [3] (conclusion from Table 3), the “In vivo metabolic stability, plasma exposure and clearance (in words)” value was “good in vivo metabolic stability, plasma exposure, and slow clearance rate”. In data set [3] (setting [7]), the AUC(0-inf) came out at 7.08 µM·h, the AUC(0-t) came to 6.73 µM·h, the Cmax is 0.658 µM and the MRT inf is 8.51 h. Moreover, in data set [3] (setting [7]), the Tmax came out at 1.67 h and the half-life was 5.37 h. In data set [3] (setting [8]), this compound yielded an AUC(0-inf) of 5.05 µM·h, an AUC(0-t) of 4.97 µM·h, a C0 of 2.34 µM and an MRT inf of 4.95 h. In data set [3] (setting [8]), this compound gave a clearance of 0.464 L/h/kg and a half-life of 4.41 h. Besides, the Vd in data set [3] (male, plasma, IV, single 2 mg/kg, plasma, read-out: Vss) was found to be 2.29 L/kg. In addition, the Vd in data set [3] (male, plasma, IV, single 2 mg/kg, plasma, read-out: Vz) turned out to be 2.95 L/kg. Moreover, the “Downregulation of FER (Western blot)” value in data set [4] is given as “significantly downregulated FER”. In data set [5], the “Relative fold-change abundance of proteins (downregulated proteins)” value was “downregulated PLK4, CAMK1D, FAK2, RSK1, ACK1 and FER”.
By DC50 is commonly meant the concentration giving 50% degradation. A word on the Dmax: it is the largest share of the target that was removed. Take `COc1cc(C2CCN(CCC3CN(c4ccc5c(c4)C(=O)N(C4CCC(=O)NC4=O)C5=O)C3)CC2)c(C)cc1Nc1ncc(Cl)c(Nc2ccccc2S(=O)(=O)C(C)C)n1` (stereo not drawn) [Compound 2]: in data set [6], the DC50 was found to be 0.01 µM and the Dmax came out at 76%.
Turning to `COc1cc(C2CCN(C[C@H]3CCN(c4ccc5c(c4)C(=O)N(C4CCC(=O)NC4=O)C5=O)C3)CC2)c(C)cc1Nc1ncc(Cl)c(Nc2ccccc2S(=O)(=O)C(C)C)n1` (stereo partly drawn) [Compound 8, 5-[(3R)-3-[(4-{4-[(5-chloro-4-{[2-(propane-2-sulfonyl)phenyl]amino}pyrimidin-2-yl)amino]-5-methoxy-2-methylphenyl}piperidin-1-yl)methyl]pyrrolidin-1-yl]-2-(2,6-dioxopiperidin-3-yl)-2,3-dihydro-1H-isoindole-1,3-dione], the DC50 in data set [6] was determined as 0.124 µM.
As for `COc1cc(C2CCN(C[C@@H]3CCN(c4ccc5c(c4)C(=O)N(C4CCC(=O)NC4=O)C5=O)C3)CC2)c(C)cc1Nc1ncc(Cl)c(Nc2ccccc2S(=O)(=O)C(C)C)n1` (stereo partly drawn) [Compound 9], in data set [6], the DC50 turned out to be 0.041 µM and the Dmax turned out to be 86%.
Take `COc1cc(C2CCN(CC3CC4(C3)CN(c3ccc5c(c3)C(=O)N(C3CCC(=O)NC3=O)C5=O)C4)CC2)c(C)cc1Nc1ncc(Cl)c(Nc2ccccc2S(=O)(=O)C(C)C)n1` (stereo not drawn) [Compound 16, 5-(6-((4-(4-((5-chloro-4-((2-(isopropylsulfonyl)phenyl)amino)pyrimidin-2-yl)amino)-5-methoxy-2-methylphenyl)piperidin-1-yl)methyl)-2-azaspiro[3.3]heptan-2-yl)-2-(2,6-dioxopiperidin-3-yl)isoindoline-1,3-dione]: the DC50 in data set [6] came out at 0.079 µM.
As to `CNC(=O)c1ccccc1Nc1nc(Nc2cc(C)c(C3CCN(CC4CCN(c5ccc6c(c5)C(=O)N(C5CCC(=O)NC5=O)C6=O)CC4)CC3)cc2OC)ncc1C(F)(F)F` (stereo not drawn) [Compound 17, 2-{[2-({4-[1-({1-[2-(2,6-dioxopiperidin-3-yl)-1,3-dioxo-2,3-dihydro-1H-isoindol-5-yl]piperidin-4-yl}methyl)piperidin-4-yl]-2-methoxy-5-methylphenyl}amino)-5-(trifluoromethyl)pyrimidin-4-yl]amino}-N-methylbenzamide], in data set [6], the DC50 came out at 0.023 µM and the Dmax was 77%.
In the same order, the values of `CNC(=O)c1ccccc1Nc1nc(Nc2cc(C)c(C3CCN(CC4CN(c5ccc6c(c5)C(=O)N(C5CCC(=O)NC5=O)C6=O)C4)CC3)cc2OC(C)C)ncc1C(F)(F)F` (stereo not drawn) [Compound 18, 2-{[2-({4-[1-({1-[2-(2,6-dioxopiperidin-3-yl)-1,3-dioxo-2,3-dihydro-1H-isoindol-5-yl]azetidin-3-yl}methyl)piperidin-4-yl]-5-methyl-2-(propan-2-yloxy)phenyl}amino)-5-(trifluoromethyl)pyrimidin-4-yl]amino}-N-methylbenzamide] are 0.071 µM and 68%.
In the same order, the values of `CNC(=O)c1ccccc1Nc1nc(Nc2cc(C)c(C3CCN(CC4CCN(c5ccc6c(c5)C(=O)N(C5CCC(=O)NC5=O)C6=O)CC4)CC3)cc2OC(C)C)ncc1C(F)(F)F` (stereo not drawn) [Compound 19, 2-{[2-({4-[1-({1-[2-(2,6-dioxopiperidin-3-yl)-1,3-dioxo-2,3-dihydro-1H-isoindol-5-yl]piperidin-4-yl}methyl)piperidin-4-yl]-5-methyl-2-(propan-2-yloxy)phenyl}amino)-5-(trifluoromethyl)pyrimidin-4-yl]amino}-N-methylbenzamide] are 0.114 µM and 55%.
On to `CCc1cc2c(cc1C#CCCCN1CCC(c3ccc4c(c3)CN(C3CCC(=O)NC3=O)C4=O)CC1)C(C)(C)c1[nH]c3cc(C#N)ccc3c1C2=O` (stereo not drawn) [Compound 22], for which, in data set [6], the DC50 is 0.006 µM and the Dmax was determined as 82%.
In the same order, the values of `CCc1cc2c(cc1N1CC(CN3CCC(c4ccc5c(c4)CN(C4CCC(=O)NC4=O)C5=O)CC3)C1)C(C)(C)c1[nH]c3cc(C#N)ccc3c1C2=O` (stereo not drawn) [Compound 23] are 0.095 µM and 63%.
In the same order, the values of `COc1cc(CN2CCC(O)(c3ccc4c(c3)CN(C3CCC(=O)NC3=O)C4=O)CC2)c(C)cc1Nc1ncc(Cl)c(Nc2ccccc2S(=O)(=O)C(C)C)n1` (stereo not drawn) [Compound 26, 3-(5-(1-(4-((5-chloro-4-((2-(isopropylsulfonyl)phenyl)amino)pyrimidin-2-yl)amino)-5-methoxy-2-methylbenzyl)-4-hydroxypiperidin-4-yl)-1-oxoisoindolin-2-yl)piperidine-2,6-dione] are 0.147 µM and 62%.
